Test systems include ACHN renal; EKVX NSCLC; HCC-2998 colon; HOP-92 NSCLC; MOLT-4 leukemia; SK-MEL-2 melanoma; SNB-75 CNS; SW-620 colon; TK-10 renal; UO-31 renal.
Test in all cases: inhibition of tumour cell growth, NCI panel, 48 h

Data on six compounds can be found in PubChem BioAssay (NCI).

Where “and” joins values, the source holds several entries; their conditions need not be identical. Equal entries are not always repeated.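 How tested: cells in 96-well plates exposed to compound for 48 hours at five concentrations. Abbreviation: GI50, concentration required for 50% inhibition of growth. At the TGI there is no net growth.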 Where a SMILES comes first, the peptide text is derived from it. [ ]: non-standard residue; d: D form. The star is where a group is joined. Bn2Val = CC(C)[C@@H](C(=O)*)N(Cc1ccccc1)Cc1ccccc1; NH(3,4-diMeO-benzyl) = COc1ccc(CN*)cc1OC; NMeV = CN[C@H](C(=O)O)C(C)C; dNMeA = CN[C@H](C)C(=O)O A value given as a limit tells only on which side of the number the result lay.

With `COC(=O)c1c2c(c(C)[n+]([O-])c1C)C(=O)C=CC2=O`, the GI50 in the assay on ACHN renal is 1.9 µM; in the assay on EKVX NSCLC, 2.02 µM; in the assay with HCC-2998 colon, 1.64 µM; in the assay with HOP-92 NSCLC it was 2.12 µM; in the assay with MOLT-4 leukemia, 1.69 µM; in the assay with SK-MEL-2 melanoma, 1.89 µM. In addition, the GI50 in the assay with SNB-75 CNS is 1.72 µM; in the assay with SW-620 colon, 1.54 µM; in the assay with TK-10 renal, 2.74 µM; with UO-31 renal, 1.69 µM. The TGI in the assay with ACHN renal was 3.77 µM; with EKVX NSCLC, 5.12 µM; in the assay with HCC-2998 colon, 3.13 µM; in the assay with HOP-92 NSCLC it was 6.03 µM; in the assay on MOLT-4 leukemia, 4.65 µM; in the assay with SK-MEL-2 melanoma, 3.99 µM. Further, the TGI was determined as 3.12 µM in the assay on SNB-75 CNS, 3.74 µM in the assay on SW-620 colon, 7.74 µM with TK-10 renal and 3.39 µM in the assay on UO-31 renal.
For the compound `C[C@@H]1Cc2c([nH]c3ccccc23)[C@@H](c2c(F)cc(/C=C/C(=O)O)cc2F)N1CC(C)(C)F`, the GI50 in the assay with ACHN renal is 12.7 µM; in the assay with EKVX NSCLC, 12.7 µM; in the assay with HCC-2998 colon, 10.4 µM; with HOP-92 NSCLC, 15 µM; in the assay with MOLT-4 leukemia, 11.2 µM; in the assay with SK-MEL-2 melanoma it was 13.8 µM. The GI50 in the assay on SNB-75 CNS is 12.9 µM; in the assay on SW-620 colon, 12.5 µM; in the assay with TK-10 renal it was 15.9 µM; with UO-31 renal it was 8.1 µM. The TGI was determined as 28 µM with ACHN renal; 39.2 µM in the assay with EKVX NSCLC; 25.6 µM with HCC-2998 colon; 30.8 µM in the assay with HOP-92 NSCLC; 34.9 µM with MOLT-4 leukemia; 32.8 µM in the assay with SK-MEL-2 melanoma. Besides, the TGI in the assay on SNB-75 CNS is 28.6 µM; in the assay with SW-620 colon, 29 µM; in the assay on TK-10 renal it was 39.4 µM; in the assay on UO-31 renal, 21.6 µM.
Regarding `COc1ccc(CNC(=O)[C@@H](C)N(C)C(=O)[C@@H]2CCCN2C(=O)[C@H](C(C)C)N(C)C(=O)[C@@H](NC(=O)[C@H](C(C)C)N(Cc2ccccc2)Cc2ccccc2)C(C)C)cc1OC` (Bn2Val-V[NMeV]P[dNMeA]-{NH(3,4-diMeO-benzyl)}), the GI50 in the assay on ACHN renal was 8.21 µM; in the assay with EKVX NSCLC, 10.4 µM; in the assay with HOP-92 NSCLC, 10.2 µM; in the assay on MOLT-4 leukemia, 0.475 µM; in the assay on SK-MEL-2 melanoma, 4.38 µM; in the assay on SNB-75 CNS, 3.54 µM. Also, the TGI in the assay with ACHN renal was 14.9 µM and 23.9 µM; with EKVX NSCLC it was 50 µM and 49.1 µM; with HCC-2998 colon, 21.2 µM; in the assay on HOP-92 NSCLC, 16.9 µM and 23.4 µM; in the assay with MOLT-4 leukemia, 23.9 µM and 11.7 µM; in the assay with SK-MEL-2 melanoma it was 15.1 µM and 15 µM. The TGI was 16.6 µM and 15.9 µM with SNB-75 CNS; 41.7 µM and 38 µM in the assay with SW-620 colon; 50 µM and 61.6 µM with TK-10 renal; > 100 µM with UO-31 renal.
On to `CC(=O)c1ccc(N(/C=C/C(=O)C(F)(F)F)CC(=O)c2ccc(Cl)c(Cl)c2)cc1`, for which the GI50 in the assay on ACHN renal is 14.4 µM; in the assay with EKVX NSCLC, 19.9 µM; in the assay with HCC-2998 colon, 18.5 µM; with HOP-92 NSCLC, 13.5 µM; with MOLT-4 leukemia, 4.18 µM; in the assay with SK-MEL-2 melanoma, 15.3 µM. The GI50 is 18 µM in the assay with SNB-75 CNS, 18.3 µM in the assay on SW-620 colon, 15.8 µM with TK-10 renal and 16.5 µM in the assay on UO-31 renal. The TGI with ACHN renal worked out at 27.7 µM; with EKVX NSCLC, 38.5 µM; in the assay with HCC-2998 colon, 34.9 µM; in the assay with HOP-92 NSCLC, 29 µM; with MOLT-4 leukemia, 27.2 µM; in the assay with SK-MEL-2 melanoma, 30.4 µM. Besides, the TGI was 38.3 µM with SNB-75 CNS, 34.8 µM with SW-620 colon, 32.8 µM in the assay on TK-10 renal and 30.5 µM in the assay on UO-31 renal.
For the compound `CNC(=O)c1cc(Oc2ccc3c(c2)sc2nc(-c4ccc(N)cc4)cn23)ccn1`, the GI50 with ACHN renal is 0.75 µM; in the assay on EKVX NSCLC, 0.458 µM; in the assay on HCC-2998 colon it was 0.537 µM; in the assay on HOP-92 NSCLC, 5.98 µM; in the assay with MOLT-4 leukemia, 0.26 µM; in the assay with SK-MEL-2 melanoma, 0.332 µM. The GI50 was 0.286 µM in the assay with SNB-75 CNS, 0.153 µM with SW-620 colon, 0.278 µM in the assay on TK-10 renal and 0.467 µM in the assay with UO-31 renal. Also, the TGI was > 100 µM in the assay with ACHN renal; > 100 µM in the assay on EKVX NSCLC; > 50.5 µM in the assay with HCC-2998 colon; > 100 µM in the assay on HOP-92 NSCLC; > 60.8 µM in the assay on MOLT-4 leukemia; > 100 µM in the assay with SK-MEL-2 melanoma. Moreover, the TGI in the assay with SNB-75 CNS, in the assay with SW-620 colon, in the assay on TK-10 renal and in the assay on UO-31 renal was > 100 µM each time.
Consider `Cc1c(Cl)cccc1Nc1ncccc1C(=O)O`, for which the GI50 with ACHN renal was 58.5 µM; with EKVX NSCLC, 34.1 µM; with HCC-2998 colon, 63.3 µM; with HOP-92 NSCLC, 41.6 µM; in the assay with MOLT-4 leukemia, > 100 µM; with SK-MEL-2 melanoma, > 100 µM. The GI50 in the assay on SNB-75 CNS was > 100 µM; in the assay with SW-620 colon, > 100 µM; in the assay on TK-10 renal, > 100 µM; in the assay with UO-31 renal it was 55.7 µM. For the same compound, the TGI with ACHN renal, with EKVX NSCLC, in the assay on HCC-2998 colon, in the assay on HOP-92 NSCLC, in the assay on MOLT-4 leukemia and with SK-MEL-2 melanoma was > 100 µM in each case. The TGI with SNB-75 CNS, in the assay on SW-620 colon, in the assay with TK-10 renal and in the assay on UO-31 renal was > 100 µM each time.
